Key:
Type in all cases: in vivo
[1] = system: velvetleaf (Abutilon theophrasti); test: Test A pre-/postemergence: velvetleaf
In short: (§1)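 Each species received preemergence soil-directed spraying and, at the same time, postemergence treatment of seedlings 2–10 cm tall. Formulation: non-phytotoxic solvent mixture including surfactant. Response assessed visually about ten days on, relative to untreated controls, 0–100 scale.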

[2] = system: sedge, umbrella (small-flower umbrella sedge, Cyperus difformis); test: Test C flooded paddy test: sedge, umbrella; conditions: scale 0 to 100 (0 no effect, 100 complete control)
In short: (§2)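 Plants at 2-leaf stage in pots flooded 3 cm above soil; compounds applied directly into the paddy water, depth maintained. Visual rating against controls after 13–15 days in greenhouse, scale 0 (no effect) to 100 (complete control).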

[3] = system: foxtail, giant (giant foxtail, Setaria faberii); test: Test A pre-/postemergence: foxtail, giant
In short: as §1

rice (Oryza sativa) = test: Test C flooded paddy test: rice; conditions: scale 0 to 100 (0 no effect, 100 complete control)
In short: as §2

[4] = system: pigweed (Amaranthus retroflexus); test: Test A pre-/postemergence: pigweed
In short: as §1

[5] = system: barnyardgrass (Echinochloa crus-galli); test: Test C flooded paddy test: barnyardgrass; conditions: scale 0 to 100 (0 no effect, 100 complete control)
In short: as §2

corn (Zea mays) = test: Test A pre-/postemergence: corn
In short: as §1

[6] = system: ducksalad (Heteranthera limosa); test: Test C flooded paddy test: ducksalad; conditions: scale 0 to 100 (0 no effect, 100 complete control)
In short: as §2

[7] = system: barnyardgrass (Echinochloa crus-galli); test: Test A pre-/postemergence: barnyardgrass
In short: as §1

[8] = system: morningglory (Ipomoea spp.); test: Test A pre-/postemergence: morningglory
In short: as §1

[9] = system: wheat (Triticum aestivum); test: Test A pre-/postemergence: wheat
In short: as §1

[10] = system: crabgrass, large (large crabgrass, Digitaria sanguinalis); test: Test A pre-/postemergence: crabgrass, large
In short: as §1

[11] = Postemergence, 1000 g ai/ha, visual rating on 0 to 100 scale (0 no effect, 100 complete control), approximately ten days
[12] = Preemergence, 1000 g ai/ha, 0 to 100 scale, 0 is no effect, 100 is complete control
[13] = Flood (flooded paddy test), 125 g ai/ha, visual rating after 13 to 15 days
[14] = Flood (flooded paddy test), 250 g ai/ha, visual rating after 13 to 15 days
[15] = Postemergence, 125 g ai/ha, 0 to 100 scale, 0 is no effect, 100 is complete control
[16] = Postemergence, 500 g ai/ha, visual rating on 0 to 100 scale (0 no effect, 100 complete control), approximately ten days
[17] = Preemergence, 125 g ai/ha, 0 to 100 scale (0 no effect, 100 complete control)
[18] = Preemergence, 500 g ai/ha, 0 to 100 scale, 0 is no effect, 100 is complete control
[19] = Flood (flooded paddy test), 62 g ai/ha, visual rating after 13 to 15 days
[20] = Preemergence, 125 g ai/ha, 0 to 100 scale where 0 is no effect and 100 is complete control
[21] = Preemergence, 500 g ai/ha, 0 to 100 scale (0 no effect, 100 complete control)

CCc1nn(-c2ccc(C(F)(F)F)cc2)nc1Cn1ccc(C(F)(F)F)n1 [Compound 118]
30: Plant response rating, Barnyardgrass ([5]; Flood, 62 g ai/ha) | Corn plant response rating (corn (Zea mays); [11]) | Plant response rating, Ducksalad ([6]; Flood, 62 g ai/ha) | Barnyardgrass plant response rating [7, 11]
70: Velvetleaf plant response rating [1, 11] | Plant response rating, Sedge, Umbrella [2, 13] | Plant response rating, Ducksalad [6, 13] | Plant response rating, Ducksalad [6, 14] | Barnyardgrass plant response rating [7, 12]
10: Velvetleaf plant response rating [1, 12] | Wheat plant response rating [9, 12]
20: Plant response rating, Rice (rice (Oryza sativa); [14]) | Plant response rating, Barnyardgrass ([5]; Flood, 31 g ai/ha) | Corn plant response rating (corn (Zea mays); [12]) | Morningglory plant response rating [8, 12] | Wheat plant response rating [9, 11]
75: Plant response rating, Sedge, Umbrella [2, 14]
100: Foxtail, Giant plant response rating [3, 12] | Pigweed plant response rating [4, 11] | Pigweed plant response rating [4, 12] | Morningglory plant response rating [8, 11] | Crabgrass, Large plant response rating [10, 12]
65: Plant response rating, Sedge, Umbrella ([2]; Flood, 62 g ai/ha) | Plant response rating, Barnyardgrass [5, 14]
50: Plant response rating, Barnyardgrass [5, 13]
15: Plant response rating, Rice (rice (Oryza sativa); [13])
90: Crabgrass, Large plant response rating [10, 11]
60: Foxtail, Giant plant response rating [3, 11]
0: Plant response rating, Rice (rice (Oryza sativa); Flood, 31 g ai/ha) | Plant response rating, Rice (rice (Oryza sativa); Flood, 62 g ai/ha) | Plant response rating, Ducksalad ([6]; Flood, 31 g ai/ha)
40: Plant response rating, Sedge, Umbrella ([2]; Flood, 31 g ai/ha)

Cc1nn(-c2ccc(F)cc2)nc1Oc1ccnc(OCC(F)(F)F)c1 [Compound 71]
40: Pigweed plant response rating [4, 16]
0: Velvetleaf plant response rating [1, 15] | Plant response rating, Velvetleaf [1, 17] | Plant response rating, Velvetleaf [1, 18] | Plant response rating, Sedge, Umbrella [2, 19] | Plant response rating, Sedge, Umbrella [2, 13] | Plant response rating, Sedge, Umbrella [2, 14] | Plant response rating, Sedge, Umbrella ([2]; Flood, 31 g ai/ha) | Plant response rating, Foxtail, Giant [3, 17] | Plant response rating, Foxtail, Giant [3, 18] | Plant response rating, Rice (rice (Oryza sativa); [19]) | Plant response rating, Rice (rice (Oryza sativa); [13]) | Plant response rating, Rice (rice (Oryza sativa); [14]) | Plant response rating, Rice (rice (Oryza sativa); Flood, 31 g ai/ha) | Plant response rating, Pigweed [4, 17] | Plant response rating, Pigweed [4, 18] | Plant response rating, Barnyardgrass [5, 19] | Plant response rating, Barnyardgrass [5, 13] | Plant response rating, Barnyardgrass [5, 14] | Plant response rating, Barnyardgrass ([5]; Flood, 31 g ai/ha) | Corn plant response rating (corn (Zea mays); [15]) | Plant response rating, Corn (corn (Zea mays); [17]) | Plant response rating, Corn (corn (Zea mays); [18]) | Plant response rating, Ducksalad [6, 19] | Plant response rating, Ducksalad [6, 13] | Plant response rating, Ducksalad [6, 14] | Plant response rating, Ducksalad ([6]; Flood, 31 g ai/ha) | Barnyardgrass plant response rating [7, 15] | Plant response rating, Barnyardgrass [7, 17] | Plant response rating, Barnyardgrass [7, 18] | Plant response rating, Morningglory [8, 17] | Plant response rating, Morningglory [8, 18] | Wheat plant response rating [9, 15] | Wheat plant response rating [9, 16] | Plant response rating, Wheat [9, 17] | Plant response rating, Wheat [9, 18] | Plant response rating, Crabgrass, Large [10, 17]
10: Velvetleaf plant response rating [1, 16] | Foxtail, Giant plant response rating [3, 15] | Foxtail, Giant plant response rating [3, 16] | Pigweed plant response rating [4, 15] | Corn plant response rating (corn (Zea mays); [16]) | Barnyardgrass plant response rating [7, 16] | Morningglory plant response rating [8, 15] | Morningglory plant response rating [8, 16] | Crabgrass, Large plant response rating [10, 15] | Crabgrass, Large plant response rating [10, 16] | Plant response rating, Crabgrass, Large [10, 18]

CCc1nn(-c2ccc(C(F)(F)F)cc2)nc1Cn1cc(C(F)(F)F)nc1Cl [Compound 122]
75: Plant response rating, Sedge, Umbrella ([2]; Flood, 62 g ai/ha)
80: Velvetleaf plant response rating [1, 15] | Crabgrass, Large plant response rating [10, 15]
0: Plant response rating, Rice (rice (Oryza sativa); Flood, 31 g ai/ha) | Plant response rating, Rice (rice (Oryza sativa); Flood, 62 g ai/ha) | Plant response rating, Ducksalad ([6]; Flood, 31 g ai/ha) | Plant response rating, Ducksalad ([6]; Flood, 62 g ai/ha) | Plant response rating, Wheat [9, 20]
85: Plant response rating, Sedge, Umbrella [2, 13] | Plant response rating, Sedge, Umbrella [2, 14]
100: Velvetleaf plant response rating [1, 16] | Plant response rating, Foxtail, Giant [3, 21] | Pigweed plant response rating [4, 15] | Pigweed plant response rating [4, 16] | Plant response rating, Pigweed [4, 21] | Morningglory plant response rating [8, 16] | Plant response rating, Crabgrass, Large [10, 21]
60: Plant response rating, Velvetleaf [1, 21] | Foxtail, Giant plant response rating [3, 15] | Plant response rating, Ducksalad [6, 13]
40: Plant response rating, Barnyardgrass [5, 13] | Plant response rating, Barnyardgrass [5, 14] | Barnyardgrass plant response rating [7, 15]
50: Plant response rating, Morningglory [8, 21]
10: Plant response rating, Barnyardgrass ([5]; Flood, 31 g ai/ha) | Plant response rating, Corn (corn (Zea mays); [20])
65: Plant response rating, Ducksalad [6, 14]
30: Plant response rating, Velvetleaf [1, 20] | Plant response rating, Rice (rice (Oryza sativa); [14]) | Corn plant response rating (corn (Zea mays); [16]) | Wheat plant response rating [9, 16]
70: Plant response rating, Sedge, Umbrella ([2]; Flood, 31 g ai/ha) | Barnyardgrass plant response rating [7, 16] | Plant response rating, Barnyardgrass [7, 21]
20: Plant response rating, Barnyardgrass ([5]; Flood, 62 g ai/ha) | Corn plant response rating (corn (Zea mays); [15]) | Plant response rating, Corn (corn (Zea mays); [21]) | Plant response rating, Barnyardgrass [7, 20] | Plant response rating, Morningglory [8, 20] | Wheat plant response rating [9, 15] | Plant response rating, Wheat [9, 21]
90: Foxtail, Giant plant response rating [3, 16] | Plant response rating, Foxtail, Giant [3, 20] | Plant response rating, Pigweed [4, 20] | Morningglory plant response rating [8, 15] | Crabgrass, Large plant response rating [10, 16] | Plant response rating, Crabgrass, Large [10, 20]
25: Plant response rating, Rice (rice (Oryza sativa); [13])

Reference: patent US9302999B2, “Substituted triazoles as herbicides” (E. I. DU PONT DE NEMOURS AND COMPANY, priority 2012, dated 2016)
